Experimental data taken from ChEMBL document CHEMBL1153902, “Investigations of SCIO-469-like compounds for the inhibition of p38 MAP kinase” (Bioorg Med Chem Lett, 2009).

Assay: Inhibition of p38 MAPK assessed as substrate phosphorylation at 10 uM by ELISA

**Q.** With `O=C(c1ccco1)N1CCN(Cc2ccc(F)cc2)CC1` as the compound, how does the inhibition read?
**A.** 35%

**Q.** Which inhibition does the source give for `CC(=O)c1ccc2[nH]c(C(=O)N3CCN(Cc4ccc(F)cc4)CC3)cc2c1` here?
**A.** 45%

**Q.** With `Cn1c(C(=O)N2CCN(Cc3ccc(F)cc3)CC2)nc2ccccc21` as the compound, how does the inhibition read?
**A.** 32%

**Q.** For `CN(C)C(=O)C(=O)c1cn(C)c2ccc(NC(=O)N3CCN(Cc4ccc(F)cc4)CC3)cc12`, which inhibition is on record?
**A.** 12%

**Q.** For `O=C(c1ccco1)N1CCN(Cc2ccccc2)CC1`, which inhibition is on record?
**A.** 20%

**Q.** With `CC(=O)c1c(C(=O)N2CCN(Cc3ccc(F)cc3)CC2)[nH]c2ccccc12` as the compound, how does the inhibition read?
**A.** 24%

**Q.** Which inhibition does the source give for `O=C(c1cn2ccccc2n1)N1CCN(Cc2ccc(F)cc2)CC1` here?
**A.** 33%

**Q.** Which inhibition does the source give for `CC(C)(C)OC(=O)n1ccc2cc(CNC(=O)N3CCN(Cc4ccc(F)cc4)CC3)ccc21` here?
**A.** 8%

**Q.** With `Fc1ccc(CN2CCN(Cc3cc4ccccc4[nH]3)CC2)cc1` as the compound, how does the inhibition read?
**A.** 25%

**Q.** Which inhibition does the source give for `O=C(c1cc2c(Br)cccc2[nH]1)N1CCN(Cc2ccc(F)cc2)CC1` here?
**A.** 34%

**Q.** For `Cn1ccc2cc(NC(=O)N3CCN(Cc4ccc(F)cc4)CC3)ccc21`, which inhibition is on record?
**A.** 28%

**Q.** For `O=C(c1nc2ccccc2[nH]1)N1CCN(Cc2ccc(F)cc2)CC1`, which inhibition is on record?
**A.** 24%

Assay: Selectivity for p38alpha over p38beta

**Q.** For `CN(C)C(=O)C(=O)c1cn(C)c2cc(Cl)c(C(=O)N3CCC(Cc4ccc(F)cc4)CC3)cc12`, which fold change (FC) is on record?
**A.** 10

Assay: Inhibition of p38 MAPK assessed as substrate phosphorylation by ELISA

**Q.** For `O=C(c1cc2ccccc2o1)N1CCN(Cc2ccc(F)cc2)CC1`, which IC50 is on record?
**A.** 8.42 µM

**Q.** With `O=C(c1[nH]c2ccccc2c1Cl)N1CCN(Cc2ccc(F)cc2)CC1` as the compound, how does the IC50 read?
**A.** 7.57 µM

**Q.** For `O=C(c1[nH]c2ccccc2c1Br)N1CCN(Cc2ccc(F)cc2)CC1`, which IC50 is on record?
**A.** 6.46 µM

**Q.** With `Cn1c(C(=O)N2CCN(Cc3ccc(F)cc3)CC2)c(Br)c2ccccc21` as the compound, how does the IC50 read?
**A.** 2.24 µM

**Q.** Which IC50 does the source give for `CC(=O)c1cccc2c(Cl)c(C(=O)N3CCN(Cc4ccc(F)cc4)CC3)[nH]c12` here?
**A.** 2.46 µM

**Q.** For `O=C(c1[nH]c2ccccc2c1I)N1CCN(Cc2ccc(F)cc2)CC1`, which IC50 is on record?
**A.** 7.47 µM

**Q.** With `CC(=O)c1ccc2[nH]c(C(=O)N3CCN(Cc4ccc(F)cc4)CC3)c(Cl)c2c1` as the compound, how does the IC50 read?
**A.** 6.51 µM

**Q.** With `O=C(c1cc2ccccc2[nH]1)N1CCN(Cc2ccccc2)CC1` as the compound, how does the IC50 read?
**A.** 5.77 µM

**Q.** Which IC50 does the source give for `O=C(c1cc2ccccc2[nH]1)N1CCC(Cc2ccccc2)CC1` here?
**A.** 1.09 µM

**Q.** For `Cn1c(C(=O)N2CCN(Cc3ccc(F)cc3)CC2)cc2ccccc21`, which IC50 is on record?
**A.** 1.36 µM

**Q.** Which IC50 does the source give for `CC(=O)c1cccc2cc(C(=O)N3CCN(Cc4ccc(F)cc4)CC3)[nH]c12` here?
**A.** 3.61 µM

**Q.** For `O=C(c1cc2ccccc2[nH]1)N1CCN(Cc2ccc(F)cc2)CC1`, which IC50 is on record?
**A.** 3.2 µM

**Q.** For `O=C(c1cc2ccccc2o1)N1CCC(Cc2ccccc2)CC1`, which IC50 is on record?
**A.** 1.75 µM
